From ChEMBL document CHEMBL1201862, “PubChem BioAssay data set” (2004) come the findings set out here.

Assay [1] concerns the target T1, Botulinum neurotoxin type F (Clostridium botulinum, UniProt P30996). Briefly: High-throughput multiplex microsphere dose response for inhibitors of toxin protease, specifically Botulinum neurotoxin light chain F protease, compounds from Cherry Pick 01. The assay is classed as functional. The settings on record: read-out: EC50_MICROM.
Assay [2] concerns the target T2, Botulinum neurotoxin type A (Clostridium botulinum (strain Hall / ATCC 3502 / NCTC 13319 / Type A), UniProt P0DPI1). Briefly: High-throughput multiplex microsphere dose response for inhibitors of toxin protease, specifically Botulinum neurotoxin light chain A protease, compounds from Cherry Pick 01. The assay is classed as functional. The settings on record: read-out: EC50_MICROM.

Assay [3] concerns the target T1, Botulinum neurotoxin type F. Briefly: High-throughput multiplex microsphere dose response for inhibitors of toxin protease, specifically Botulinum neurotoxin light chain F protease, compounds from Cherry Pick 02. It is filed as functional. The settings on record: read-out: EC50_MICROM.
For assay [4], the target named is Beta-lactamase (Salmonella choleraesuis (strain SC-B67), UniProt Q5J463).
Assay [5] concerns the target G-protein coupled receptor 55 (Homo sapiens, UniProt Q9Y2T6). Kind of assay: GPR55 agonists via beta-arrestin recruitment, primary screen, imaging, U2OS cells, beta-arrestin-GFP redistribution (AID 1961). It is filed as functional.
For assay [6], the target named is T2, Botulinum neurotoxin type A. Kind of assay: High-throughput multiplex microsphere dose response for inhibitors of toxin protease, specifically Botulinum neurotoxin light chain A protease, compounds from Cherry Pick 02. The settings on record: read-out: EC50_MICROM. The assay is classed as functional.
Assay [7] shares this target. Kind of assay: Confirmatory FRET assay using full length substrates for Botulinum neurotoxin light chain A protease, with Powder Set01. The assay is classed as functional.
The target in assay [8] is Beta-lactamase (Pseudomonas aeruginosa, UniProt Q79MP6).
Assay [9] deals with T2, Botulinum neurotoxin type A. Briefly: High-throughput multiplex microsphere dose response for inhibitors of toxin protease, specifically Botulinum neurotoxin light chain A protease, compounds from Powder Set 01. The note with it: read-out: EC50_MICROM. The assay is classed as functional, Clostridium botulinum A str. ATCC 3502.
For assay [10], the target named is Dual specificity protein kinase CLK4 (Homo sapiens, UniProt Q9HAZ1). It is filed as functional.
Assay [11] has as its target Platelet-derived growth factor receptor alpha (Homo sapiens, UniProt P16234). Kind of assay: Navigating the Kinome. Panel member name: PDGFRA. It is filed as functional.
The target of assay [12] is Rho-associated protein kinase 1 (Homo sapiens, UniProt Q13464). It is filed as functional.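 Further: measured within a broad kinome-wide panel profiling many kinases.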
Assay [13] addresses Vascular endothelial growth factor receptor 2 (Homo sapiens, UniProt P35968). The assay is classed as functional.
Assay [14] concerns the target cAMP-dependent protein kinase catalytic subunit alpha (Homo sapiens, UniProt P17612). It is filed as functional.
Assay [15] concerns the target Dual specificity tyrosine-phosphorylation-regulated kinase 1B (Homo sapiens, UniProt Q9Y463). Kind of assay: Navigating the Kinome. Panel member name: DYRK1B. It is filed as functional.
For assay [16], the target named is Cyclin-dependent kinase 9 (Homo sapiens, UniProt P50750). It is filed as functional.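 Further: value from the CDK9 entry of a kinome-spanning kinase panel.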
Assay [17] addresses Cyclin-dependent kinase 8 (Homo sapiens, UniProt P49336). Briefly: Navigating the Kinome. Panel member name: CDK8. It is filed as functional.
In assay [18] the target is Interleukin-1 receptor-associated kinase 4 (Homo sapiens, UniProt Q9NWZ3). It is filed as functional.
For assay [19], the target named is Mitogen-activated protein kinase kinase kinase kinase 4 (Homo sapiens, UniProt O95819). The assay is classed as functional.
Assay [20] concerns the target Glycogen synthase kinase-3 beta (Homo sapiens, UniProt P49841). The assay is classed as functional.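 Further: value comes from a broad kinome profiling panel, with GSK3B as the panel member.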
In assay [21] the target is Homeodomain-interacting protein kinase 2 (Homo sapiens, UniProt Q9H2X6). The assay is classed as functional.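 Further: measured within a kinome-wide kinase profiling panel, HIPK2 being one panel member.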
Assay [22] has as its target T3, Apoptotic protease-activating factor 1 (Homo sapiens, UniProt O14727).
T3 sequence (O14727 whole entry): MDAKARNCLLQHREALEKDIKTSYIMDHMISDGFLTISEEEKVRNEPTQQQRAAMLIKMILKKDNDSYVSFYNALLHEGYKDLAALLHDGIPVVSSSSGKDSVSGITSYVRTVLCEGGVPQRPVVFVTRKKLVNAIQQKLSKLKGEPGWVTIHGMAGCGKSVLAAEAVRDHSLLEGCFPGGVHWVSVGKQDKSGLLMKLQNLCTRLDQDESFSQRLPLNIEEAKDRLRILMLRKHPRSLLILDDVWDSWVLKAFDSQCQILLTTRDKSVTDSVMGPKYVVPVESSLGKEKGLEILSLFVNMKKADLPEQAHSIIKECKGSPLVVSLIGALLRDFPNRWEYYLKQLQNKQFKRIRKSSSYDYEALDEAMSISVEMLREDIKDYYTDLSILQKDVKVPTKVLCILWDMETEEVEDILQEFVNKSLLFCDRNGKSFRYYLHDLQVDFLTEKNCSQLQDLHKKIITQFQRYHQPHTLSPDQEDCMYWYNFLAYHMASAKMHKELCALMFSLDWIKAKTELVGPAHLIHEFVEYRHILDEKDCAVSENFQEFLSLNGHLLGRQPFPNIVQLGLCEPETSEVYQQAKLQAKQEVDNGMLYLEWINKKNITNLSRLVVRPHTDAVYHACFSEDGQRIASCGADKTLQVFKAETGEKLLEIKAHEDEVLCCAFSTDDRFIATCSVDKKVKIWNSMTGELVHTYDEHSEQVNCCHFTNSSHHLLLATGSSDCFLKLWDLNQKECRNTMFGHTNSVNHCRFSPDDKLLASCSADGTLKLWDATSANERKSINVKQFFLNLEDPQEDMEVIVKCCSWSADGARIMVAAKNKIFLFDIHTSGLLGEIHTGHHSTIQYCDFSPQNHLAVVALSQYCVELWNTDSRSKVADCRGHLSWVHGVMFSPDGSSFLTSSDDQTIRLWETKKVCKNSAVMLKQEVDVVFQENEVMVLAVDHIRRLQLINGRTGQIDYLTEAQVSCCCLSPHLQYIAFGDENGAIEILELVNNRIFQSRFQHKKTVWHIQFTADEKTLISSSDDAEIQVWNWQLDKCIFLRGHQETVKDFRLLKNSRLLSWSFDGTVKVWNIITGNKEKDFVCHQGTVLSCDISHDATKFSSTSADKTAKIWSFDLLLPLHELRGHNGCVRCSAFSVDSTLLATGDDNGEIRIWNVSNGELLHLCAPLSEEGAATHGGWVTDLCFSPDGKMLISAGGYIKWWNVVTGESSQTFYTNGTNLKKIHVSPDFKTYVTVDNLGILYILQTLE
Kind of assay: SAR analysis of small molecule Activators of Apaf-1 in a Fluorescent assay - set 2. The note with it: read-out: EC50_Mean. It is filed as functional.

Assay [23] is described as follows: SAR analysis of small molecule activators of Apaf-1 using a LZ-Caspase-9/Caspase-3 Fluorescent Selectivity assay - Set 2. It is filed as functional. The note with it: read-out: EC50_Mean.
The nature of assay [24]: THP-1 cell cytotoxicity, cytotoxicity control, set 5 (AID 588443). It is filed as functional.
The nature of assay [25]: Vero cell cytotoxicity, dose response, cytotoxicity control for M. tuberculosis inhibitor project, purified and synthesized compounds, set 6 (AID 588445). The assay is classed as functional. The note with it: Mycobacterium tuberculosis.

Calls of active or inactive are those of the source.

T2 sequence (P0DPI1 2-448 limits assumed): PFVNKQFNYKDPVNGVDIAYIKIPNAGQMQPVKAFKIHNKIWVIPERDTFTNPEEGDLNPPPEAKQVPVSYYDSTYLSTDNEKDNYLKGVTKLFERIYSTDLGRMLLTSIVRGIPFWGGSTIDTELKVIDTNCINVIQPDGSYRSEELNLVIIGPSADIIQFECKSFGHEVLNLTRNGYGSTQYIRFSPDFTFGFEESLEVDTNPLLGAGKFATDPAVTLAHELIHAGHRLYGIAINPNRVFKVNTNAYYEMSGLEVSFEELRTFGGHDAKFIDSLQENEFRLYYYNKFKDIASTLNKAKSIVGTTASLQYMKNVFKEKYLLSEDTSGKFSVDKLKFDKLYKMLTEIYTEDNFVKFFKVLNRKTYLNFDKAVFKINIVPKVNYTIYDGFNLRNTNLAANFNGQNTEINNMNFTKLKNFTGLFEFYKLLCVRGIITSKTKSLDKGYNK
T1 sequence (P30996 1-436 limits assumed): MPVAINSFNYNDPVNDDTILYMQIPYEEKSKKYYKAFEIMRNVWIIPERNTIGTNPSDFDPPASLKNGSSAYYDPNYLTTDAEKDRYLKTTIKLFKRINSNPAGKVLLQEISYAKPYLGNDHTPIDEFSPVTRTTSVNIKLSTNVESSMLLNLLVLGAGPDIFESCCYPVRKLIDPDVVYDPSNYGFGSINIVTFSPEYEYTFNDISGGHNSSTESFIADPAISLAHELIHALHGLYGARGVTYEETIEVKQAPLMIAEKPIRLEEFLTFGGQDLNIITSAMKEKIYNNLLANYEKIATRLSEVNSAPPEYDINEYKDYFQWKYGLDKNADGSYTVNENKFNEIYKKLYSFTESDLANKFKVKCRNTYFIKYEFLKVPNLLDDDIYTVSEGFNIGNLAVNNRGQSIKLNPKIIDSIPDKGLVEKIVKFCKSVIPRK
Chain of Beta-lactamase (Salmonella choleraesuis (strain SC-B67), UniProt Q5J463) (Q5J463 whole entry): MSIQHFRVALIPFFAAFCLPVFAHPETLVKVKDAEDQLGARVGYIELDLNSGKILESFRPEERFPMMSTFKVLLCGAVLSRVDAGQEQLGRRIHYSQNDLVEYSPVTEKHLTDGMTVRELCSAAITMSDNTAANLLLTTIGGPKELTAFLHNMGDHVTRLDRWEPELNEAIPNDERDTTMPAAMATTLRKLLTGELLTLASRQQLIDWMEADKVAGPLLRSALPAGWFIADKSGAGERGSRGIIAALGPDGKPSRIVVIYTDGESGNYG
Chain of Interleukin-1 receptor-associated kinase 4 (Q9NWZ3 whole entry): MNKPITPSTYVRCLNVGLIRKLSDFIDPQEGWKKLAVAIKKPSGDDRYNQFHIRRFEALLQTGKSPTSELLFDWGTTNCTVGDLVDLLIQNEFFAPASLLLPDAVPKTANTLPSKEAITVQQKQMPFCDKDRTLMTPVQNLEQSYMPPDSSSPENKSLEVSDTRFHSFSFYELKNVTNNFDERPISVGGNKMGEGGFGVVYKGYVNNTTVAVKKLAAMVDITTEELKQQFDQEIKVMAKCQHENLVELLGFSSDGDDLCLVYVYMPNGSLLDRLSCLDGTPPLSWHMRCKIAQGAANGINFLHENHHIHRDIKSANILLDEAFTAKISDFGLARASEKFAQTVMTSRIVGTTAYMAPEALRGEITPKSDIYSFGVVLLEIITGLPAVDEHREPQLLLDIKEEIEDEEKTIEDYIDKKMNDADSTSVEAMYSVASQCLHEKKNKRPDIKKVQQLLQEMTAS
Chain of Cyclin-dependent kinase 8 (P49336 whole entry): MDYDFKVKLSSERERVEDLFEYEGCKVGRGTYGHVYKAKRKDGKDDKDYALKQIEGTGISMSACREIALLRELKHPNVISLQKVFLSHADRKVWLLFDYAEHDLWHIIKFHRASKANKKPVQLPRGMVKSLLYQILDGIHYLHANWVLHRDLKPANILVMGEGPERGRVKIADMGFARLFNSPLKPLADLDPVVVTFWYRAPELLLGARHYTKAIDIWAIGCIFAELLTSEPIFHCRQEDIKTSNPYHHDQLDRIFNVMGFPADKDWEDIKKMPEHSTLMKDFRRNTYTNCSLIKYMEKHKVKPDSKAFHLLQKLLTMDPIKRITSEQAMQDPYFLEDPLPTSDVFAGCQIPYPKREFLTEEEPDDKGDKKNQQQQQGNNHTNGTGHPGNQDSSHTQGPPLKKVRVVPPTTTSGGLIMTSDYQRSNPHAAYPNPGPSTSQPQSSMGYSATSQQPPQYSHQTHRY
Chain of Glycogen synthase kinase-3 beta (P49841 whole entry): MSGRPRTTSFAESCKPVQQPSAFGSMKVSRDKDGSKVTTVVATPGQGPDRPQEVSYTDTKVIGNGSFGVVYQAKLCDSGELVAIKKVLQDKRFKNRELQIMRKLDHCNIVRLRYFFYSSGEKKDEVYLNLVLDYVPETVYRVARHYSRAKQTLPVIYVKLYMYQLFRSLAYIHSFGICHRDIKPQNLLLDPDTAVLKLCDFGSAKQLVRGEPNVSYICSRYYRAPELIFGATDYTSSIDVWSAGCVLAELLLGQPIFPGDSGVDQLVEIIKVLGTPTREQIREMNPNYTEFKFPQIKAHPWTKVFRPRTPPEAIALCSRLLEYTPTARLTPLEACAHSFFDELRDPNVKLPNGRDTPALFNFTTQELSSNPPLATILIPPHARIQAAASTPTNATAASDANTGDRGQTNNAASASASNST
Chain of Dual specificity protein kinase CLK4 (Q9HAZ1 whole entry): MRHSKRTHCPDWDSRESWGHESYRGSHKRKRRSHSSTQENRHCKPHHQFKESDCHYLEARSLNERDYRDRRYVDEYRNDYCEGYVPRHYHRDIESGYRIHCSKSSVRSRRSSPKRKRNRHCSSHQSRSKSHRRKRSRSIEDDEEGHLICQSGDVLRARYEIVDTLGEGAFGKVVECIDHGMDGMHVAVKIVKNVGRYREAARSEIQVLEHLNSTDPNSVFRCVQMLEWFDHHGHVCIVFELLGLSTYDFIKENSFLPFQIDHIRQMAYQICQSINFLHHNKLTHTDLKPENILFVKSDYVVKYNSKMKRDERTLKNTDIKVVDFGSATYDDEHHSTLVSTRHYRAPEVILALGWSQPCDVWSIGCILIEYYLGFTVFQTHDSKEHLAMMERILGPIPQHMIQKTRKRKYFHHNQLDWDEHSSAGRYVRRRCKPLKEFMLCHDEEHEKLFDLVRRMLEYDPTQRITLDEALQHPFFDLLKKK
Chain of Vascular endothelial growth factor receptor 2 (P35968 whole entry): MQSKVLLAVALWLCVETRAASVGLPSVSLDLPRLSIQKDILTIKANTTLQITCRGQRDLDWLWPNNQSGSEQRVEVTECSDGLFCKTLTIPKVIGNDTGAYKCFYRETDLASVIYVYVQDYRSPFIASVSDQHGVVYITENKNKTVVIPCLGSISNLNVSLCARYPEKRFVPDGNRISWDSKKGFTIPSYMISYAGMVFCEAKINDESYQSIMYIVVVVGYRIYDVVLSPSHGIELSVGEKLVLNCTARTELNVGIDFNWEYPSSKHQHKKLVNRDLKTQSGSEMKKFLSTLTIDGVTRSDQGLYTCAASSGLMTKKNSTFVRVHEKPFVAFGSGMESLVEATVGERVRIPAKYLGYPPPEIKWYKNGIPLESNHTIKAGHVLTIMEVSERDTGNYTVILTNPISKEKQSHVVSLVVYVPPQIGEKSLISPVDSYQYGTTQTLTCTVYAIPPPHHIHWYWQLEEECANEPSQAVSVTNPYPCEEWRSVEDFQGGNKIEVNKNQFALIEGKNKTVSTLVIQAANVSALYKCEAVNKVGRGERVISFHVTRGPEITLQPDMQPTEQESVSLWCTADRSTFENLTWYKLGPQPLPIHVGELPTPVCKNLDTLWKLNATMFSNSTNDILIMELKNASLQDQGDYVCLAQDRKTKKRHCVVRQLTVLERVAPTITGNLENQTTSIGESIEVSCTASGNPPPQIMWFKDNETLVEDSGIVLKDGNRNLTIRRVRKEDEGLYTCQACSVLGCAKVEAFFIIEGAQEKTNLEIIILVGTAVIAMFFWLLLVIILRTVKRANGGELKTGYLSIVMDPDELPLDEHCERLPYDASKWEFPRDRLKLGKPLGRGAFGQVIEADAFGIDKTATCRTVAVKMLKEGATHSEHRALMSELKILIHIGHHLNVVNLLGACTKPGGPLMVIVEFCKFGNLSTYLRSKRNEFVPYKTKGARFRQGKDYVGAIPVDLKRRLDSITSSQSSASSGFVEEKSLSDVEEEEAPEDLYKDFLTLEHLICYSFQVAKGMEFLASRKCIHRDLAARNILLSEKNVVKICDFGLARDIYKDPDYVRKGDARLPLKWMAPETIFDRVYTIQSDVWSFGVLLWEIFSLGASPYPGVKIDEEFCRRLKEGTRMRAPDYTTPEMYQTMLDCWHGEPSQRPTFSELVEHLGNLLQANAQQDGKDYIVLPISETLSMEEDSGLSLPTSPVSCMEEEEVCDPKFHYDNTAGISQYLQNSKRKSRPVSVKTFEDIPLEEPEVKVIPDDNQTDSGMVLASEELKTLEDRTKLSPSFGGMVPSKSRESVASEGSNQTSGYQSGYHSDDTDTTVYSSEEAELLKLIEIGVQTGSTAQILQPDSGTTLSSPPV
Chain of G-protein coupled receptor 55 (Q9Y2T6 whole entry): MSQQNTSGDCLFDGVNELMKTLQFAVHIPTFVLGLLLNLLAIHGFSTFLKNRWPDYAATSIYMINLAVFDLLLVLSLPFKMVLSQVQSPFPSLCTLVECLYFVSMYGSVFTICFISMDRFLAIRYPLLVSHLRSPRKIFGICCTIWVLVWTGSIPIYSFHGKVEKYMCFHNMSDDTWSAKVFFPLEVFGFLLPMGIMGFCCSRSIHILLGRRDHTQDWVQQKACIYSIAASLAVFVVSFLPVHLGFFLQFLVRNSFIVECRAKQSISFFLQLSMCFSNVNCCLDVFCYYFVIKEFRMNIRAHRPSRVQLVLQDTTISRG
Chain of Beta-lactamase (Pseudomonas aeruginosa, UniProt Q79MP6) (Q79MP6 whole entry): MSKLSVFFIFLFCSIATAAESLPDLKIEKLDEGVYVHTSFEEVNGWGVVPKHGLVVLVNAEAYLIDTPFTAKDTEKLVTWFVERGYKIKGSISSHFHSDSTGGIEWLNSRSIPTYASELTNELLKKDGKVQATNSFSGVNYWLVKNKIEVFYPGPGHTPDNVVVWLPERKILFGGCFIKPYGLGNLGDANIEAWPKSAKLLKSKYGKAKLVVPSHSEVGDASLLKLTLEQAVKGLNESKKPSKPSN

Broadly, the IC50 is the concentration at which inhibition is half-maximal. On to `COc1ccccc1[N+]1=N[C-](c2ccc([N+](=O)[O-])cc2)CC1c1ccccc1` (stereo unspecified), for which the EC50 in [1] was 1.8 µM (active); in assay [2] it was 1.7 µM (active); in assay [3], 0.4 µM (active); in assay [5], < 0.5 µM (active); in assay [6], 1 µM (active); in [7], 0.2 µM (active). The EC50 in [9] is 1.4 µM (active). Also, the IC50 in assay [4] and in assay [8] was > 59.6 µM (inactive) throughout.
As usually defined, the Ki is the dissociation constant of the complex between target and ligand, obtained from inhibition or displacement. As to `c1ccc(C2CCc3[nH]ncc32)cc1` (stereo unspecified), the Ki in [10] was 12.6 µM (active); in assay [11] it was 79.4 µM (active); in assay [12] it was 20 µM (active); in assay [13], 50.1 µM (active); in assay [14] it was 39.8 µM (active); in assay [15], 39.8 µM (active). Besides, the inhibition constant Ki was 31.6 µM (active) in assay [16] and 39.8 µM (active) in assay [17].
Consider `CN(C)c1ccc(-c2c(-c3ccc4[nH]nc(N)c4c3)nnn2Cc2ccccc2)cc1`, for which the Ki in assay [18] was > 10 µM (inactive); in assay [19] it was 0.0794 µM (active); in assay [14] it was 0.631 µM (active); in assay [20] it was 0.0251 µM (active); in assay [21], > 3.16 µM (inactive).
On to `CC(Cn1cccn1)C(=O)O` (stereo unspecified), for which the EC50 in [22] and in assay [23] was > 100 µM (inactive) each time.
One may read the CC50 as the concentration at which the toxic effect on the cells reaches its halfway point. Regarding `CCC(C)NC(=O)CSc1nc2ccccc2c(=O)[nH]1` (stereo unspecified), the CC50 in [24] and in [25] was > 100 µM (active) throughout.
